Assay results published in US6387849B1, “Herbicidal hydroximic acid derivatives” (BASF Aktiengesellschaft, priority 1997, dated 2002).

melting point: 122 to 124 °C
SMILES: CO/N=C(\OC)c1cc(-n2c(=O)cc(C(F)(F)F)n(C)c2=O)c(F)cc1Cl [Compound 4.01, 3-[2-fluoro-4-chloro-5-methoxyimino-(methoxy)methylphenyl]-2,4-dioxo-1-methyl-6-trifluoromethyl-1,2,3,4-tetrahydropyrimidine]
